Tests used:
Experiment in all cases: Method of dilutions in liquid medium (MIC)
Format in all cases: cell-based
Conditions in all cases: 24 hours at 37° C.
Entero faecium 02D3IP2 = system: Entero faecium 02D3IP2
Method: (§1) A—Method of dilutions in liquid medium A series of tubes is prepared in which the same quantity of sterile nutritive medium is distributed. Increasing quantities of the product to be studied are distributed into each tube, then each tube is sown with a bacterial strain. After incubation for twenty-four hours in an oven at 37° C., the growth inhibition is evaluated by transillumination, which allows the minimal inhibitory concentrations (M.I.C.) to be determined, expressed in micrograms/cm^3. Activity in vitro MIC in μg/ml

Strepto. pyogene 02A1UC1 = system: Strepto. pyogene 02A1UC1
Method: as §1

[1] = system: Staph. coag. negative 012HT5
Method: as §1

Staph. aureus 011HT18 = system: Staph. aureus 011HT18
Method: as §1

Entero faecalis 02D2UC5 = system: Entero faecalis 02D2UC5
Method: as §1

[2] = system: Staph. epidermidis 0126042
Method: as §1

[3] = system: Strepto. pneumoniae 030BI2
Method: as §1

Activity in vitro MIC (Entero faecium 02D3IP2)	Activity in vitro MIC (Strepto. pyogene 02A1UC1)	Activity in vitro MIC [1]	Activity in vitro MIC (Staph. aureus 011HT18)	Activity in vitro MIC (Entero faecalis 02D2UC5)	Activity in vitro MIC [2]	Activity in vitro MIC [3]	SMILES
0.6 µg/mL	0.3 µg/mL	0.04 µg/mL	0.04 µg/mL	1.2 µg/mL	0.04 µg/mL	0.08 µg/mL	C#CCONC(=O)O[C@H]1[C@@H](O)[C@H](Oc2ccc3c(O)c(C(=O)NCCN4CCOCC4)c(=O)oc3c2C)OC(C)(C)[C@@H]1OC [Ex. 2, 7-[(6-deoxy-5-C-methyl-4-O-methyl-alpha-L-lyxo-hexopyranosyl)oxyl]-4-hydroxy-8-methyl-N-[2-(4-morpholinyl)ethyl]-2-oxo-2H-1-benzopyrane-3-carboxamide (2-propynyloxy)-carbamic 3′-ester acid]
1.2 µg/mL	0.6 µg/mL	0.15 µg/mL	0.04 µg/mL	1.2 µg/mL	0.15 µg/mL	0.15 µg/mL	C#CCONC(=O)O[C@H]1[C@@H](O)[C@H](Oc2ccc3c(O)c(C(C)=NOCC)c(=O)oc3c2C)OC(C)(C)[C@@H]1OC [Ex. 4, 7-[(6-deoxy-5-C-methyl-4-O-methyl-alpha-L-lyxo-hexopyranosyl)oxy]-3-[1-(ethoxyimino)ethyl]-4-hydroxy-8-methyl-2H-1-benzopyran-2-one(2-propynyloxy)-carbamic 3′-ester acid]
0.08 µg/mL	0.6 µg/mL	0.3 µg/mL	0.04 µg/mL	0.3 µg/mL	0.04 µg/mL	0.04 µg/mL	C#CCONC(=O)O[C@H]1[C@@H](O)[C@H](Oc2ccc3c(O)c(C(N)=O)c(=O)oc3c2C)OC(C)(C)[C@@H]1OC [Ex. 1, (2-propynyloxy)-carbamic 3′ester of 7-[[6-deoxy-5-C-methyl-4-O-methyl-alpha-L-lyxo-hexopyranosyl]oxy]-4-hydroxy-8-methyl-2-oxo-2H-1-benzopyran-3-carboxamide acid]
1.2 µg/mL	0.6 µg/mL	0.15 µg/mL	0.04 µg/mL	1.2 µg/mL	0.04 µg/mL	0.08 µg/mL	C#CCONC(=O)O[C@H]1[C@@H](O)[C@H](Oc2ccc3c(O)c(C(C)=NOC)c(=O)oc3c2C)OC(C)(C)[C@@H]1OC [Ex. 3, 7-[[6-deoxy-5-C-methyl-4-O-methyl-alpha-L-lyxo-hexopyranosyl]oxy]-4-hydroxy-3-[1-(methoxyimino)ethyl]-8-methyl-2H-1-benzopyran-2-one(2-propynyloxy)-carbamic-3′-ester acid]
